This is an account of results in patent US8518973B2, “Compounds having 4-pyridylalkylthio group as a substituent” (Santen Pharmaceutical Co., Ltd., priority 2003, dated 2013).

The assay concerns VEGF-induced HUVEC growth. Description: VEGF-induced HUVEC growth reaction evaluation system (cell growth inhibitory action test). It is filed as cell-based. Conditions: Homo sapiens, 72 h, 20 μg/ml test compound solution added 5 μl per well (100 μl), VEGF solution 400 ng/ml 5 μl per well, three days, absorbance at 450 nm, read-out: Cell growth inhibition rate (%). Here is the method:
Cell growth inhibitory action tests were carried out using a VEGF-induced HUVEC growth reaction evaluation system (HUVEC stands for human umbilical vein endothelial cells), which is one of widely-used methods of evaluating in vitro angiogenesis inhibitory effects of drugs.
As one of widely-used methods of evaluating angiogenesis inhibitory effects of drugs, a cell growth inhibitory action test using a VEGF-induced HUVEC growth reaction evaluation system was reported in Cancer Res., 59, 99-106(1999). According to the method described in the above-mentioned literature, cell growth inhibitory action tests of the present compounds were carried out, their cell growth inhibition rates were calculated, and angiogenesis inhibitory effects of the present compounds were evaluated using the obtained rates as indexes.
Each test compound was dissolved in dimethyl sulfoxide (hereinafter abbreviated as “DMSO”), and the obtained solution was diluted with commercially available phosphoric acid buffer solution (hereinafter abbreviated as “PBS”) to prepare a 20 μg/ml test compound solution.
HUVEC was suspended in a 0.5% fetal bovine serum (hereinafter abbreviated as “FBS”)-containing F12K medium to prepare a 2×10^4 cells/ml HUVEC suspension.
VEGF was dissolved in 0.1% bovine serum albumin-containing PBS, and the obtained solution was diluted with the 0.5% FBS-containing F12K medium to prepare a 400 ng/ml VEGF solution.
• 1) The HUVEC suspension was inoculated in each amount of 100 μl into each well of a 96-well plate coated with I type collagen (2×10^3 cells per well). • 2) One day after inoculation, the test compound solution was added in an amount of 5 μl per well. • 3) One hour after adding the test compound solution, the VEGF solution was added in an amount of 5 μl per well. • 4) Three days after adding the VEGF solution, cell counting kit-8(Dojin Chemical Co., Ltd.) was added in an amount of 10 μl per well. • 5) After three hours, the above-mentioned plate was attached to an absorptiometer (multi label counter ARVO), and absorbance at 450 nm of each well suspension (hereinafter referred to as “test compound suspension”) was measured. • 6) A test was carried out in the same manner as in 1) to 5) except that 1.0% DMSO was used instead of the test compound solution.
Incubation was carried out under conditions of 37° C., 5% carbon dioxide and 95% air in an incubator throughout the above-mentioned test steps.
Cell growth inhibition rates, which are indexes of angiogenesis inhibitory effects, were calculated by the following calculation equation.
Take `O=C(Nc1ccc(Cl)cc1F)c1cccnc1SCc1ccncc1` [1-69, N-(4-Chloro-2-fluorophenyl)-2-(4-pyridylmethylthio)pyridine-3-carboxamide]: the inhibition at 20 µg/mL (stock) amounted to 95%.

Regarding `Cc1cc(CSc2ncccc2C(=O)Nc2ccc(OC(F)(F)F)cc2)ccn1` [1-308, 2-(2-Methylpyridin-4-ylmethylthio)-N-(4-trifluoromethoxyphenyl)pyridine-3-carboxamide], the inhibition at 20 µg/mL (stock) turned out to be 92%.

On to `Cc1cc(C)cc(NC(=O)c2cccnc2SCc2ccncc2Cl)c1` [1-228, 2-(3-Chloropyridin-4-ylmethylthio)-N-(3,5-dimethylphenyl)pyridine-3-carboxamide], for which the inhibition at 20 µg/mL (stock) was 100%.

Take `Cc1ccc(NC(=O)c2sccc2SCc2ccncc2)cc1F` [1-248, N-(3-Fluoro-4-methylphenyl)-3-(4-pyridylmethylthio)thiophene-2-carboxamide]: the inhibition at 20 µg/mL (stock) stood at 75%.

On to `CCOC(=O)c1cc(CSc2ncccc2C(=O)Nc2cc(C)cc(C)c2)ccn1` [1-241, N-(3,5-dimethylphenyl)-2-(2-ethoxycarbonylpyridin-4-ylmethylthio)pyridine-3-carboxamide], for which the inhibition at 20 µg/mL (stock) was 96%.

Regarding `Cc1ccc(NC(=O)c2cccnc2SCc2ccncc2)cc1Cl` [1-78, N-(3-Chloro-4-methylphenyl)-2-(4-pyridylmethylthio)pyridine-3-carboxamide], the inhibition at 20 µg/mL (stock) is 100%.

`Cc1cc(C)cc(NC(=O)c2ccsc2SCc2ccncc2)c1` [1-291, N-(3,5-Dimethylphenyl)-2-(4-pyridylmethylthio)thiophene-3-carboxamide]: the inhibition at 20 µg/mL (stock) is 100%.

On to `O=C(Nc1ccc(Cl)cc1)c1cccnc1SCc1cc[n+]([O-])cc1` [4-1, N-(4-Chlorophenyl)-2-(1-oxopyridin-4-ylmethylthio)pyridine-3-carb oxamide], for which the inhibition at 20 µg/mL (stock) was 93%.

On to `COc1ccc(NC(=O)c2ccccc2SCc2ccncc2)cc1OC` [1-93, N-(3,4-Dimethoxyphenyl)-2-(4-pyridylmethylthio)benzamide], for which the inhibition at 20 µg/mL (stock) came to 72%.

Turning to `CNC(=O)c1cc(CSc2ncccc2C(=O)Nc2cc(C)cc(C)c2)ccn1` [7-3, N-(3,5-Dimethylphenyl)-2-(2-methylaminocarbonylpyridin-4-ylmethylthio)pyridine-3-carboxamide], the inhibition at 20 µg/mL (stock) is 100%.

For the molecule `O=C(Nc1cc(F)cc(C(F)(F)F)c1)c1cccnc1SCc1ccncc1` [1-83, N-(3-Fluoro-5-trifluoromethylphenyl)-2-(4-pyridylmethylthio)pyridine-3-carboxamide], the inhibition at 20 µg/mL (stock) was determined as 100%.

Consider `Cc1cc(NC(=O)c2cccnc2SCc2ccncc2)ccc1OC(F)(F)F` [1-175, N-(3-Methyl-4-trifluoromethoxyphenyl)-2-(4-pyridylmethylthio)pyridine-3-carboxamide], for which the inhibition at 20 µg/mL (stock) amounted to 100%.

`CC(Sc1ncccc1C(=O)Nc1cccc(Cl)c1)c1ccncc1` (stereo not drawn) [5-2, N-(3-Chlorophenyl)-2-[1-(4-pyridyl)ethylthio]pyridine-3-carboxamide]: the inhibition at 20 µg/mL (stock) is 96%.

As for `COc1cc(OC)c(NC(=O)c2ccccc2SCc2ccncc2)cc1Cl` [1-102, N-(5-Chloro-2,4-dimethoxyphenl)-2-(4-pyridylmethylthio)benzamide], the inhibition at 20 µg/mL (stock) was 55%.

For `O=C(Nc1cnc2ccccc2c1)c1cccnc1SCc1ccncc1` [1-20, 2-(4-Pyridylmethylthio)-N-(3-quinolyl)pyridine-3-carboxamide], the inhibition at 20 µg/mL (stock) came to 100%.

`Cc1cc(NC(=O)c2cccnc2SCc2cc[n+]([O-])cc2)ccc1F` [4-7, N-(4-Fluoro-3-methylphenyl)-2-(1-oxopyridin-4-ylmethylthio)pyridine-3-carboxamide]: the inhibition at 20 µg/mL (stock) came to 100%.

Turning to `Cc1cc(NC(=O)c2ccccc2SCc2ccncc2)ccc1Br` [1-111, N-(4-Bromo-3-methylphenyl)-2-(4-pyridylmethylthio)benzamide], the inhibition at 20 µg/mL (stock) came out at 100%.

Turning to `CC(C)(C)c1ccc(NC(=O)c2sccc2SCc2ccncc2)cc1` [1-256, N-(4-tert-Butylphenyl)-3-(4-pyridylmethylthio)thiophene-2-carboxamide], the inhibition at 20 µg/mL (stock) was 100%.

Regarding `CC(C)c1cccc(NC(=O)c2cccnc2SCc2ccncc2)c1` [1-35, N-(3-Isopropylphenyl)-2-(4-pyridylmethylthio)pyridine-3-carboxamide], the inhibition at 20 µg/mL (stock) was determined as 100%.

On to `COc1cc(CSc2ncccc2C(=O)Nc2cc(C)cc(C)c2)ccn1` [1-300, N-(3,5-Dimethylphenyl)-2-(2-methoxypyridin-4-ylmethylthio)pyridine-3-carboxamide], for which the inhibition at 20 µg/mL (stock) turned out to be 100%.

On to `CSc1cc(CSc2ncccc2C(=O)Nc2cc(C)cc(C)c2)ccn1` [1-231, N-(3,5-Dimethylphenyl)-2-(2-methylthiopyridin-4-ylmethylthio)pyridine-3-carboxamide], for which the inhibition at 20 µg/mL (stock) stood at 100%.

With `O=C(Nc1ccc(F)c(C(F)(F)F)c1)c1cccnc1SCc1ccncc1` [1-77, N-(4-Fluoro-3-trifluoromethylphenyl)-2-(4-pyridylmethylthio)pyridine-3-carboxamide], the inhibition at 20 µg/mL (stock) stood at 100%.

Regarding `O=C(Nc1ccc2c(c1)CCC2)c1cccnc1SCc1ccnc(Cl)c1` [1-216, 2-(2-Chloropyridin-4-ylmethylthio)-N-(5-indanyl)pyridine-3-carboxamide], the inhibition at 20 µg/mL (stock) stood at 100%.

For `Cc1cc(C)cc(NC(=O)c2cccnc2SCc2ccnc(C(=O)Nc3ccc(Cl)cc3)c2)c1` [7-2, 2-[2-(4-Chlorophenylaminocarbonyl)pyridin-4-ylmethylthio]-N-(3,5-dimethylphenyl)pyridine-3-carboxamide], the inhibition at 20 µg/mL (stock) amounted to 100%.

Consider `O=C(Nc1cccc(Cl)c1)c1sccc1SCc1ccncc1` [1-249, N-(3 Chlorophenyl)3-(4-pyridylmethylthio)thiophene-2-carboxamide], for which the inhibition at 20 µg/mL (stock) turned out to be 100%.

As for `Cc1cccc(NC(=O)c2cccnc2SCc2cc[n+]([O-])cc2)c1` [4-3, N-(3-Methylphenyl)-2-(1-oxopyridin-4-ylmethylthio)pyridine-3-carboxamide], the inhibition at 20 µg/mL (stock) was determined as 100%.

On to `O=C(Nc1cc(Cl)cc(Cl)c1)c1cccnc1SCc1ccncc1` [1-84, N-(3,5-Dichlorophenyl)-2-(4-pyridylmethylthio)pyridine-3-carboxamide], for which the inhibition at 20 µg/mL (stock) was 100%.

As for `O=C(Nc1ccc(F)c(Cl)c1)c1cccnc1SCc1ccncc1` [1-75, N-(3-Chloro-4-fluorophenyl)-2-(4-pyridylmethylthio)pyridine-3-carboxamide], the inhibition at 20 µg/mL (stock) was determined as 100%.

`O=C(Nc1cccc(C(F)(F)F)c1)c1sccc1SCc1ccncc1` [1-276, 3-(4-Pyridylmethylthio)-N-(3-trifluoromethylphenyl)thiophene-2-carboxamide]: the inhibition at 20 µg/mL (stock) amounted to 100%.

With `CN(C)c1ccc(NC(=O)c2cccnc2SCc2ccncc2)cc1` [1-64, N-(4-Dimethylaminophenyl)-2-(4-pyridylmethylthio)pyridine-3-carboxamide], the inhibition at 20 µg/mL (stock) stood at 100%.

In the case of `O=C(Nc1ccc(Cl)c(C(F)(F)F)c1)c1cccnc1SCc1ccncc1` [1-74, N-(4-Chloro-3-trifluoromethylphenyl)-2-(4-pyridylmethylthio)pyridine-3-carboxamide], the inhibition at 20 µg/mL (stock) worked out at 100%.

With `CC(C)c1cccc(NC(=O)c2cccnc2SCc2cc[n+]([O-])cc2)c1` [4-6, N-(3-Isopropylphenyl)-2-(1-oxopyridin-4-ylmethylthio)pyridine-3-carboxamide], the inhibition at 20 µg/mL (stock) came out at 100%.

On to `CC(C)c1cccc(NC(=O)c2ccccc2SCc2ccncc2)c1` [1-92, N-(3-Isopropylphenyl)-2-(4-pyridylmethylthio)benzamide], for which the inhibition at 20 µg/mL (stock) worked out at 100%.

Consider `O=C(Nc1ccc(C(F)(F)F)cc1)c1ccsc1SCc1ccncc1` [1-290, 2-(4-Pyridylmethylthio)-N-(4-trifluoromethylphenyl)thiophene-3-carboxamide], for which the inhibition at 20 µg/mL (stock) was determined as 100%.

Take `Cc1cc(C)cc(NC(=O)c2cccnc2SCc2ccnc(Cl)c2)c1` [1-226, 2-(2-Chloropyridin-4-ylmethylthio)-N-(3,5-dimethylphenyl)pyridine-3-carboxamide]: the inhibition at 20 µg/mL (stock) was determined as 100%.

`COCCNC(=O)c1cc(CSc2ncccc2C(=O)Nc2cc(C)cc(C)c2)ccn1` [7-4, N-(3,5-Dimethylphenyl)-2-[2-(2-methoxyethylaminocarbonyl)pyridin-4-ylmethylthio]pyridine-3-carboxamide]: the inhibition at 20 µg/mL (stock) was 100%.

The term inhibition denotes the percentage by which the read-out fell short of the control.
